A value given as a limit tells only on which side of the number the result lay.

Series [1] in a line: Agonist activity at human recombinant GABABreceptor expressed in CHO-K1 cells assessed as inhibition of intracellular calcium release by FLIPR. In kind it is functional, cell-based. For orientation: Calcium flux is commonly read through the fluorescence of an indicator in the cells.
Another series concerns Mus musculus. In words: Toxicity in sc dosed mouse assessed as subcutaneous dose producing 2 degC decrease in body temperature. The class given is organism-based. Conditions: in vivo.
In a further series the test system is CHO-K1. In words: Intrinsic activity at human recombinant GABAB receptor expressed in CHO-K1 cells assessed as inhibition of intracellular calcium release by FLIPR relative to GABA. The class given is cell-based.
The species entered for the next series is Canis familiaris. Put plainly: Inhibition of transient lower esophageal sphincter relaxation in dog. Conditions: Canis lupus familiaris. The class given is functional.
The nature of series [2]: Displacement of [3H]GABA from GABABreceptor in rat brain synaptic membranes. The class given is cell membranes, Membrane. (In a radioligand displacement assay an active substance lowers the binding of a labelled ligand.)
Series [3] in a line: Bioavailability in rat. The class given is ADME, organism-based. Conditions: in vivo.
A short description of series [4]: Bioavailability in dog. The class given is ADME, organism-based, Canis lupus familiaris. Particulars: in vivo.

Usually EC50 stands for the concentration needed to bring the measured effect to its halfway point. For orientation: ED50 means the midpoint of the dose-response relation. Usually Ki stands for a measure of affinity in units of concentration, obtained from inhibition or displacement. Consider `CP(=O)(O)C[C@@H](O)CN`, for which, in series [1], the EC50 amounted to 150 nM. Further, the Activity with Mus musculus was found to be 5.4 µmol/kg. In addition, the Intrinsic activity with CHO-K1 was 1. In the series listed under Canis familiaris, this molecule came in with a 50% effective dose (ED50) of 0.17 µmol/kg. Also, the Ki in series [2] is 180 nM.

On to `NC[C@@H](F)C[PH](=O)O` [LESOGABERAN], for which, in series [1], the EC50 is 8.64 nM. In addition, the Intrinsic activity with CHO-K1 was found to be 1. The Ki in series [2] came out at 5.1 nM.

Take `CP(=O)(O)C[C@H](O)CN`: the 50% effective concentration (EC50) in series [1] amounted to 600 nM. Further, in the series with CHO-K1, the Intrinsic activity was 1. Moreover, in series [2], the affinity, expressed as Ki, was 840 nM.

For the molecule `NC[C@H](F)C[PH](=O)O`, the concentration for a half-maximal effect (EC50) in series [1] stood at 250 nM. For the same molecule, the Intrinsic activity with CHO-K1 was 1. This molecule also gave a Ki in series [2] of 70 nM.

Take `NC[C@@H](O)C[PH](=O)O`: in series [1], the half-maximal effective concentration (EC50) was found to be 1100 nM. In the series with CHO-K1, the Intrinsic activity was determined as 1. This molecule also came in with a Ki in series [2] of 2100 nM.

As for `CP(=O)(O)C[C@H](F)CN`, the half-maximal effective concentration (EC50) in series [1] is 14 nM. In the series on CHO-K1, the Intrinsic activity came to 1. Further, the Ki in series [2] came to 4.3 nM.

For `NCC(F)C[PH](=O)O` (stereo not given), the EC50 in series [1] was found to be 15 nM. Further, in the series on CHO-K1, the Intrinsic activity was found to be 1. This molecule also displayed an inhibition constant (Ki) in series [2] of 10 nM.

For the molecule `CP(=O)(O)C[C@@H](F)CN`, in series [1], the EC50 was found to be 1700 nM. Besides, the Intrinsic activity in the series with CHO-K1 was 1. This molecule displayed an inhibition constant (Ki) in series [2] of 480 nM.

With `CP(=O)(O)CCCN`, in the series on CHO-K1, the Intrinsic activity turned out to be 1.

Regarding `NCC(O)C[PH](=O)O` (stereo not given), in series [1], the EC50 is 220 nM. The Intrinsic activity with CHO-K1 was determined as 1. The inhibition constant (Ki) in series [2] worked out at 94 nM.

Take `NCC(=O)C[PH](=O)O`: in series [1], the EC50 was 81 nM. Also, the Intrinsic activity with CHO-K1 was 1. The molecule further gave an inhibition constant (Ki) in series [2] of 48 nM.

Regarding `NCC(CC(=O)O)c1ccc(Cl)cc1` (stereo not given), in the series on CHO-K1, the Intrinsic activity was 1.

Take `CP(=O)(O)CC(F)CN` (stereo not given): the concentration giving a half-maximal response (EC50) in series [1] is 23 nM. Moreover, the Intrinsic activity in the series with CHO-K1 was 1. The affinity in series [2], expressed as Ki, was 14 nM.

For orientation: bioavailability means dose-corrected exposure relative to a reference, in per cent. As for `NC[C@H](O)C[PH](=O)O`, the bioavailability in series [3] was 78%; in series [4] it was 88%. The 50% effective concentration (EC50) in series [1] was found to be 130 nM. Besides, the Activity in the series on Mus musculus was > 8000 µmol/kg. The Intrinsic activity in the series with CHO-K1 was found to be 1. For the same molecule, in the series listed under Canis familiaris, the ED50 was 7 µmol/kg. In series [2], this molecule gave a Ki of 50 nM.

With `NCCC[PH](=O)O`, the concentration giving a half-maximal response (EC50) in series [1] came to 19 nM. Besides, in the series with CHO-K1, the Intrinsic activity was 1. In addition, the affinity in series [2] corresponds to a Ki of 15 nM.

For `CP(=O)(O)CC(=O)CN`, in series [1], the concentration giving a half-maximal response (EC50) is 270 nM. In addition, the Intrinsic activity in the series on CHO-K1 was determined as 1. Moreover, in series [2], the inhibitory constant (Ki) came to 200 nM.

The record behind these values is ChEMBL document CHEMBL1155076, “Synthesis and pharmacological evaluation of novel gamma-aminobutyric acid type B (GABAB) receptor agonists as gastroesophageal reflux inhibitors” (J Med Chem, 2008).
